Test results taken from patent US20030125287A1, “Antisense oligonucleotides and methods to induce tumor cell death” (Hybridon, Inc., priority 2001, published 2003).
“Also recorded” adds a separate entry of the source. Read-outs that look alike come from different tables or passages of the source. Oligonucleotides are written 5' to 3', each unit as a sugar letter and its base; * is a phosphorothioate linkage, no mark a phosphodiester; rarer units and linkages stand in square brackets, end groups in braces. Plain capitals give the bases only. d = 2'-deoxy (DNA)

How the values were obtained:
caspase-3 = experiment: Caspase-3 activity assay in MSN cells; format: cell-based, human; conditions: MSN cells, 400 nM, 48 hours; for caspase-3 activity, Relative units/mg protein +/− SD: triplicate
Procedure: MSN cells were treated with lipofectin, 400 nM survivin antisense oligonucleotide 903, 904, or mismatched oligonucleotide 1132, for a 48 hour period. Cell pellets were washed twice in cold PBS and re-suspended in ice-cold hypotonic cell lysis buffer (25 mM HEPES, pH 7.5, 5 mM MgCl2, 5 mM EDTA, 5 mM DTT, 2 mM PMSF, 10 μg/ml pepstatin A, 10 μg/ml leupeptin). Re-suspended pellets were incubated on ice for 20 min, followed by brief sonication for two seconds. Lysates were centrifuged at 14,000 rpm for 20 minutes at 4° C. The supernatant was retained and the protein concentration analyzed by the Bio-Rad protein assay described above.
Supernatants were assayed in triplicate, with and without the caspase-3 inhibitor, Ac-DEVD-CHO, using black opaque, 96 well, flat bottom plates (Greiner Laboratories, USA Scientific Inc., Orlando, Fla.). 50-100 μg of the supernatant was incubated in caspase-3 assay buffer (100 mM HEPES, pH 7.5, 10% sucrose, 0.1% CHAPS and 10 mM DTT) with either 2 μl of DMSO or 2 μl of 2.5 mM Ac-DEVD-CHO (Pharmingen, San Diego, Calif.) so that the final concentration of the inhibitor was 50 μM in a final volume of 100 μl. It was then incubated at 30° C. for 30 minutes. Subsequently, 2 μl of the caspase-3 substrate 2.5 mM Ac-DEVD-AMC (Pharmingen, San Diego, Calif.) (final concentration 50 μM)) was added to each well. Plates were incubated at 30° ° C. for 60 minutes in the dark.
Fluorescence of the reaction was measured using a SPECTRAmax GEMINI spectrofluorometer using SOFTmax® PRO software (Molecular Devices, Sunnyvale, Calif.) at an excitation wavelength of 355 nm and an emission wavelength of 460 nm with a cutoff filter of 455 nm. The data is presented as the ratio of the mean relative fluorescence units/mg protein±SD.

XIAP [1] = experiment: Western blot of XIAP protein in TC620 cells; format: cell-based, human; conditions: 48 hours (FIG. 10B)
Procedure: TC620 oligodendroglioma cells were transfected with lipofectin or increasing concentrations of survivin antisense oligonucleotide 904 (25 to 400 nM). Total protein was isolated after 48 hours of treatment and 75 μg of total protein was loaded per lane. The experiment was performed once.

PARP [2] = conditions: TC620 cells; 100 nM to 400 nM (FIG. 5B)
Procedure: 75 μg of total protein was loaded per lane. Following gel electrophoresis and transfer to nitrocellulose membrane, the blot was incubated with a PARP monoclonal antibody (1:500) and visualized by enhanced chemiluminescence.
(§1) Survivin polyclonal antibody was purchased from R & D Systems, Inc. (Minneapolis, Minn.). […] A generic β-tubulin monoclonal antibody (TUB 2.1) was purchased from SIGMA (St. Louis, Mo.). The XIAP mAb was purchased from StressGen Biotechnologies Corp. (Victoria, Canada). The poly-ADP ribosyl polymerase (PARP) mAb was purchased from PharMingen/Transduction Laboratories (San Diego, Calif.).

survivin = experiment: Western blot of survivin protein in antisense oligonucleotide-treated TC620 cells; format: cell-based, human; conditions: for percentage of survivin protein over β-tubulin relative to lipofectin: 48 hours (FIG. 5A)
Procedure: Subconfluent TC620 oligodendroglioma cells were transfected with lipofectin or increasing concentrations of survivin antisense oligonucleotide 904 (25 nM to 400 nM). 75 µg of total protein was loaded per lane. Blots were cut at 32.9 kD and the bottom was incubated with a survivin polyclonal antibody (1:500), while the top was incubated with a β-tubulin monoclonal antibody (1:1000).
The antisense oligonucleotides were synthesized on solid support with an automated DNA synthesizer using β-cyanoethylphosphoramidite chemistry. In order to prevent rapid degradation of the antisense oligonucleotides by cellular nucleases, oxidation was carried out with Becauge sulfurizing agent to obtain phosphorothioate backbone modified oligonucleotides. After their synthesis, the oligonucleotides were released from the solid support, deprotected, purified by reverse-phase HPLC, desalted, filtered and lyophilized. The purity and sequence integrity of oligonucleotides was ascertained by capillary gel electrophoresis and MALDI-TOF mass spectral analysis and the concentrations measured at […]. Cells were grown in 100 mm dishes and oligonucleotide treatment was performed on subconfluent cultures in the presence of Lipofectin (GIBCO) according to the manufacturer. Forty-eight hours following treatment, total protein homogenates were isolated.
Ten micrograms of the fusion protein was incubated with the survivin antibody (1:500) at 4° C. for 2 hours to overnight prior to immunoblotting. […] Blots were cut at 32.9 kD, and the bottom part of the blots were incubated with the survivin antibody overnight at 4° C. and visualized by enhanced chemiluminescence (Enhanced Chemiluminescence, Amersham, Arlington Heights, Ill.) as previously described (Sharma et al. Cell. Motil. Cytoskeleton 27:234-247).

PARP [3] = experiment: PARP cleavage immunoblot in MSN cells; format: cell-based, human
Procedure: To determine whether MSN cell death by survivin antisense oligonucleotides was mediated by caspase-3 activation, studies were conducted to examine whether PARP was cleaved following survivin antisense treatment. […] Since no PARP cleavage was detected, further tests were conducted to determine whether survivin antisense-treated cells have any active caspase-3.

XIAP [4] = conditions: MSN cells; 400 nM; 48 hours (FIG. 10A)
Procedure: MSN cells were treated with lipofectin or 400 nM survivin antisense oligonucleotides 900, 901, 903, 904, 905 and 906. Total protein was isolated 48 hours after treatment, and 100 μg of protein was loaded per lane. The blot was incubated with a monoclonal antibody against XIAP (1:1000; IgG1). Visualization was by enhanced chemiluminescence (ECL). […] The experiment was performed twice.
Total protein homogenates were prepared according to a previously described procedure (Albala et al. (1995) J. Neurochem. 64:2480-2490). Protein content was measured using the Bio-Rad detection system (Bio-Rad Laboratories, Hercules, Calif.). Equal amounts of protein were analyzed by SDS-PAGE on 10% gels (Laemmli (1970) Nature 227:680-685). The resolved polypeptides were electrophoretically transferred to nitrocellulose (Towbin et al. (1979) Proc. Natl. Acad. Sci. USA 76:4350-4354).
as §1

Substance | caspase-3 activity (caspase-3) | caspase-3 activity, Relative units/mg protein +/− SD (caspase-3) | fold change of XIAP protein over β-tubulin relative to lipofectin (XIAP [1]; 25 nM) | fold change of XIAP protein over β-tubulin relative to lipofectin (XIAP [1]; 50 nM) | fold change of XIAP protein over β-tubulin relative to lipofectin (XIAP [1]; 100 nM) | fold change of XIAP protein over β-tubulin relative to lipofectin (XIAP [1]; 200 nM) | fold change of XIAP protein over β-tubulin relative to lipofectin (XIAP [1]; 400 nM) | PARP cleavage (116 kD to 85 kD fragment), words (PARP [2]) | effect on survivin protein levels (survivin) | percentage of survivin protein over β-tubulin relative to lipofectin (survivin; 25 nM) | percentage of survivin protein over β-tubulin relative to lipofectin (survivin; 50 nM) | percentage of survivin protein over β-tubulin relative to lipofectin (survivin; 100 nM) | percentage of survivin protein over β-tubulin relative to lipofectin (survivin; 200 nM) | decrease in survivin protein abundance relative to lipofectin-treated cells (survivin; 400 nM (FIG. 5A)) | percentage of survivin protein over β-tubulin relative to lipofectin (survivin; 400 nM) | PARP cleavage, words (PARP [3]) | fold change of XIAP protein over β-tubulin relative to lipofectin (XIAP [4])
d(GCACCTAGTCTCCCTGCACC) (DNA, all phosphorothioate, methylation of C not given here) [Oligo 1132, mismatched phosphorothioate control oligonucleotide, not complementary to survivin mRNA, reference compound] | no significant increase in caspase-3 activity | 30,961 ± 1681 Relative units/mg protein | – | – | – | – | – | – | – | – | – | – | – | – | – | – | –
d(TCTTGGCTCTTTCTCTGTCC) (antisense dT*dC*dT*dT*dG*dG*dC*dT*dC*dT*dT*dT*dC*dT*dC*dT*dG*dT*dC*dC) [Oligo 904, 20-mer phosphorothioate survivin antisense oligonucleotide, complementary to survivin mRNA 5248-5267] | no significant increase in caspase-3 activity; also recorded: did not activate caspase-3 | 33,532 ± 3732 Relative units/mg protein | 1.3 fold | 1.0 fold | 0.71 fold | 0.67 fold | 0.66 fold | dramatic decrease of the 116 kD PARP protein; also recorded: resulted in the cleavage of the 116 kD caspase-3 substrate PARP | marked concentration-dependent reduction in survivin protein levels | 109.1% | 97.4% | 67.6% | 45.2% | 54% | 45.7% | did not activate caspase-3 or cleave the caspase-3 substrate, PARP | –
d(GCTTCCCAGTCACATCCTGT) (antisense dG*dC*dT*dT*dC*dC*dC*dA*dG*dT*dC*dA*dC*dA*dT*dC*dC*dT*dG*dT) [Oligo 906] | – | – | – | – | – | – | – | – | – | – | – | – | – | – | – | – | 8.3 fold
